Tests used:
WEE1 kinase enzyme = WEE1 kinase enzyme (Homo sapiens (Human), UniProt P30291); test: WEE1 IC50 determination, LanthaScreen Terbium labeled TR-FRET kinase assay; assay type: biochemical; details: WEE1 enzyme 1 nM
Protocol: IC50 values of compounds against WEE1 kinase enzyme were determined by LanthaScreen™ Terbium Labeled TR-FRET assay. Kinase assays were performed in 1× kinase buffer (# PV6135, Invitrogen, Life Technologies Grand Island, N.Y.) where total reaction volume was 10 μl in low-volume 384-well plates (#4511, Corning). Serially diluted compounds (3-fold) were incubated with WEE1 Enzyme (1 nM) (# PR7373A, Invitrogen, Life Technologies Grand Island, N.Y.) for 10 min, following which a mixture of ATP […] (# A1852, Sigma, St-Louis, Mo.) and fluorescent-PolyGT substrate (200 nM) (# PV3610, Invitrogen, Life Technologies Grand Island, N.Y.) was added and incubated in dark at room temperature for 1 h. After 1 h, 10 μl stop solution containing Terbium labeled antibody (4 nM) (# PV3529, Invitrogen, Life Technologies Grand Island, N.Y.) and EDTA (# E5134, Sigma, St-Louis, Mo.) (20 mM) in TR-FRET dilution buffer (# PV3574, Invitrogen, Life Technologies Grand Island, N.Y.) was added. Readings were taken in a Synergy Neo Plate reader (BioTek, Winooski) at single excitation of 340 nm and Dual emission at 495 nm and 520 nm respectively.
The % activity of test samples was calculated as (Sample−Min)*100/(Max−Min). [Max: DMSO control, complete reaction with enzyme & DMSO and Min: No enzyme & DMSO]. Percent inhibition (100-% activity) was fitted to the “four-parameter logistic model” in XLfit for determination of IC50 values.

A427 cells = test: Cytotoxicity assay (resazurin), A427 cells, 72 hr; assay type: cell-based; details: Homo sapiens, A-427, read-out: Cell Viability A427 IC50
Protocol: A549 (CCL-185; ATCC) and A427 (HTB-53; ATCC), both lung epithelial cell lines were seeded in their respective medium (DMEM/MEM, 10569044/41090101; Gibco) at a cell count of 1500 cells per 100 μL per well in a 96 well edge plate (167425; ThermoFisher). Cells were allowed to grow at 37° C. for 24 hr in 5% CO2 environment (culture conditions) in a Nuaire incubator (humidified). Serially diluted test compounds (100 μL) within the desired testing concentration ranges were added to the culture plate were further incubated in culture conditions for 72 hr and 96 hr for A427 and A549 respectively. The experiment was terminated at the designated incubation time by replacing the medium with 100 μL of 1 mM of resazurin (R7017; Sigma) prepared in respective culture medium, and the plates were further incubated in culture conditions for 4-6 hr. Fluorescence was recorded using a multimodal plate reader (Biotek Synergy Neo) at an excitation wavelength of 535 nm and emission wavelength of 590 nm to obtain relative fluorescence units. Data analysis was done by subtracting the background fluorescence (only medium blank) value from each reading and then normalizing with the vehicle control (DMSO treated cells) to obtain percent survival/proliferation. Percent survival was then subtracted by 100 to get the percent inhibition of proliferation which was used to calculate IC50 values. Potency of compounds in other cell lines (As-Pc-1, Panc-10.05, MDAMB231, A172) was determined in an analogous manner.

WEE1 kinase enzyme, sequence (P30291 whole entry): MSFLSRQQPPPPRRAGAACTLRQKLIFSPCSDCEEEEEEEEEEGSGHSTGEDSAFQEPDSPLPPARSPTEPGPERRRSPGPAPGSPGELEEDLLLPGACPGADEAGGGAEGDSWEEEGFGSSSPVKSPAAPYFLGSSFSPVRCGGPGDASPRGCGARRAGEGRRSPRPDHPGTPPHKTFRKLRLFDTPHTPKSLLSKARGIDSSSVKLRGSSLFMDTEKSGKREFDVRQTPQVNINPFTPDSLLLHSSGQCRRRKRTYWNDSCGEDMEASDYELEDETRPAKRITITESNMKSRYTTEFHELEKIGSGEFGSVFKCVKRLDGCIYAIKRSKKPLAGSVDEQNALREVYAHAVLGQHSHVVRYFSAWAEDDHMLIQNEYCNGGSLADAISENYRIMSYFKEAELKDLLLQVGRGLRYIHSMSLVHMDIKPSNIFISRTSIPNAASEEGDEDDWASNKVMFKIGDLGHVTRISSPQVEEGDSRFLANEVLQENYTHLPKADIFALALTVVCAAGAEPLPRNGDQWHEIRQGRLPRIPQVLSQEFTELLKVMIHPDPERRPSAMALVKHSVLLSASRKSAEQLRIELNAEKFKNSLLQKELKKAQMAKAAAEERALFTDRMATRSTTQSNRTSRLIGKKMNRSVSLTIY

Row | IC50 (WEE1 kinase enzyme) | Compound | IC50 (A427 cells)
1 | 3260 nM | O=C1c2cnc(Nc3ccc(N4CCOCC4)cc3)nc2OCN1c1c(Cl)cccc1Cl [Example 1.2] | –
2 | 279 nM | CC(C)(O)C(=O)N1Cc2cc(Nc3ncc4c(n3)OCN(c3c(Cl)cccc3Cl)C4=O)ccc2C(C)(C)C1 [Example 1.6] | –
3 | 74 nM | O=C(CO)N1CCc2ccc(Nc3ncc4c(n3)OCN(c3c(Cl)cccc3Cl)C4=O)cc2C1 [Example 1.7] | –
4 | 162 nM | O=C(CO)N1CCN(c2ccc(Nc3ncc4c(n3)OCN(c3c(Cl)cccc3Cl)C4=O)cc2)CC1 [Example 1.8] | –
5 | 193 nM | O=C1c2cnc(Nc3ccc(N4CCNCC4)cc3)nc2OCN1c1ccccc1Cl [Example 1.9] | –
6 | 837 nM | CN1CCN(c2ccc(Nc3ncc4c(n3)OCN(c3ccc(F)cc3Cl)C4=O)cc2)CC1 [Example 1.11] | –
7 | 144 nM | O=C1c2cnc(Nc3ccc(N4CCNCC4CO)cc3)nc2OCN1c1c(Cl)cccc1Cl (centres unmarked) [Example 1.13] | –
8 | 173 nM | CC1(C)CNCc2cc(Nc3ncc4c(n3)OCN(c3ccc(F)cc3Cl)C4=O)ccc21 [Example 1.14] | –
9 | 1560 nM | CCS(=O)(=O)N1CCN(c2ccc(Nc3ncc4c(n3)OCN(c3c(Cl)cccc3Cl)C4=O)cc2)CC1 [Example 1.15] | –
10 | 156 nM | CC1Oc2nc(Nc3ccc(N4CCNCC4)cc3)ncc2C(=O)N1c1c(Cl)cccc1Cl (centres unmarked) [Example 1.17] | –
11 | 192 nM | CCN1CCN(c2ccc(Nc3ncc4c(n3)OCN(c3c(Cl)cccc3Cl)C4=O)cc2)CC1 [Example 1.18] | –
12 | 206 nM | CC(C)N1CCN(c2ccc(Nc3ncc4c(n3)OCN(c3c(Cl)cccc3Cl)C4=O)cc2)CC1 [Example 1.19] | –
13 | 1390 nM | O=C1c2cnc(Nc3ccc(N4CCN(C5CC5)CC4)cc3)nc2OCN1c1c(Cl)cccc1Cl [Example 1.21] | –
14 | 30 nM | CCN1Cc2cc(Nc3ncc4c(n3)OCN(c3c(Cl)cccc3Cl)C4=O)ccc2C(C)(C)C1 [Example 1.22] | –
15 | 607 nM | O=C1NCCc2ccc(Nc3ncc4c(n3)OCN(c3c(Cl)cccc3Cl)C4=O)cc21 [Example 1.23] | –
16 | 68 nM | CN1CCN(c2ccc(Nc3ncc4c(n3)OCN(c3c(F)cccc3Cl)C4=O)cc2)CC1 [Example 1.25] | –
17 | 88 nM | CC1CNCCN1c1ccc(Nc2ncc3c(n2)OCN(c2c(Cl)cccc2Cl)C3=O)cc1 (centres unmarked) [Example 1.26] | –
18 | 35 nM | CC1(C)CNCc2cc(Nc3ncc4c(n3)OCN(c3c(F)cccc3Cl)C4=O)ccc21 [Example 1.28] | –
19 | 30000 nM | CN1CCN(c2ccc(Nc3ccc4c(n3)OCN(c3c(Cl)cccc3Cl)C4=O)cc2)CC1 [Example 1.31, 3-(2,6-dichlorophenyl)-7-(4-(4-methylpiperazin-1-yl)phenylamino)-2H-pyrido[3,2-e][1,3]oxazin-4(3H)-one] | –
20 | > 5000 nM | CC1CCN(c2ccc(Nc3ncc4c(n3)OCN(c3c(Cl)cccc3Cl)C4=O)cc2)CC1 [Example 1.59, 3-(2,6-dichlorophenyl)-7-(4-(4-methylpiperidin-1-yl)phenylamino)-2H-pyrimido[5,4-e][1,3]oxazin-4(3H)-one] | 14000 nM
21 | 110 nM | O=C1c2cnc(Nc3ccc(N4CCCNCC4)cc3)nc2OCN1c1c(Cl)cccc1Cl [Example 1.61] | 4120 nM
22 | 123 nM | CC1Oc2nc(Nc3ccc(N4CCNCC4)c(CO)c3)ncc2C(=O)N1c1c(Cl)cccc1Cl (centres unmarked) [Example 1.62] | 2800 nM
23 | > 5000 nM | O=C1c2cnc(Nc3ccc(N4CCC(F)(F)CC4)cc3)nc2OCN1c1c(Cl)cccc1Cl [Example 1.63] | –
24 | > 5000 nM | O=C1c2cnc(Nc3ccc4cnccc4c3)nc2OCN1c1c(Cl)cccc1Cl [Example 1.64] | –
25 | 1330 nM | O=C1c2cnc(Nc3ccc4c(c3)CN(CC(F)F)CC4)nc2OCN1c1c(Cl)cccc1Cl [Example 1.65] | –
26 | 777 nM | O=C1c2cnc(Nc3ccc4[nH]ncc4c3)nc2OCN1c1c(Cl)cccc1Cl [Example 1.87] | 25400 nM
27 | 47 nM | O=C1c2cnc(Nc3ccc(N4CCNC(CO)C4)cc3)nc2OCN1c1c(Cl)cccc1Cl (centres unmarked) [Example 1.96] | 5890 nM

Row | IC50 (WEE1 kinase enzyme) | Compound | IC50 (A427 cells)
28 | > 5000 nM | CN(c1ccc(N2CCNCC2)cc1)c1ncc2c(n1)OCN(c1c(Cl)cccc1Cl)C2=O [Example 1.104] | 27800 nM
29 | 110 nM | CN(C)Cc1c[nH]c2cc(Nc3ncc4c(n3)OCN(c3c(Cl)cccc3Cl)C4=O)ccc12 [Example 1.107] | 7700 nM
30 | 501 nM | O=C1c2cnc(Nc3ccc4c(c3)NCCC4)nc2OCN1c1c(Cl)cccc1Cl [Example 1.121] | 7330 nM
31 | 66 nM | C[C@H]1CNCCN1c1ccc(Nc2ncc3c(n2)OCN(c2c(Cl)cccc2Cl)C3=O)cc1 [Example 1.172] | 4900 nM
32 | 87 nM | C[C@@H]1CN(c2ccc(Nc3ncc4c(n3)OCN(c3c(Cl)cccc3Cl)C4=O)cc2)CCN1 [Example 1.173] | 3320 nM
33 | 32 nM | C[C@@H]1CN(c2ccc(Nc3ncc4c(n3)OCN(c3c(Cl)cccc3Cl)C4=O)cc2F)CCN1 [Example 1.174] | 3400 nM
34 | 66 nM | O=C1c2cnc(Nc3ccc4[nH]ccc4c3)nc2OCN1c1c(Cl)cccc1Cl [Example 1.175] | 22000 nM
35 | 105 nM | Cc1cc(Nc2ncc3c(n2)OCN(c2c(Cl)cccc2Cl)C3=O)cc(C)c1N1CCNCC1 [Example 1.176] | 3250 nM
36 | 32 nM | CN(C)C1CCN(c2ccc(Nc3ncc4c(n3)OCN(c3c(Cl)cccc3Cl)C4=O)cc2)CC1 [Example 1.223] | 1660 nM
37 | 232 nM | O=C1c2cnc(Nc3ccc4c(c3)CCCN4)nc2OCN1c1c(Cl)cccc1Cl [Example 1.224] | 12100 nM
38 | 282 nM | CCN(CC)CCOc1ccc(Nc2ncc3c(n2)OCN(c2c(Cl)cccc2Cl)C3=O)cc1 [Example 1.225] | 2160 nM
39 | 188 nM | O=C1c2cnc(Nc3ccc4c(c3)NCCN4)nc2OCN1c1c(Cl)cccc1Cl [Example 1.226] | 5360 nM
40 | 127 nM | CC1CN(c2ccc(Nc3ncc4c(n3)OCN(c3c(Cl)cccc3Cl)C4=O)cc2Cl)CCN1 (centres unmarked) [Example 1.228] | 1460 nM
41 | 185 nM | C[C@H]1CN(c2ccc(Nc3ncc4c(n3)OCN(c3c(Cl)cccc3Cl)C4=O)cc2Cl)CCN1 [Example 1.229] | 2250 nM
42 | 561 nM | CN1CCN(c2ccc(Nc3ncc4c(n3)SCN(c3c(Cl)cccc3Cl)C4=O)cc2)CC1 [Example 1.230] | 4940 nM
43 | 142 nM | CC1(C)CNCc2cc(Nc3ncc4c(n3)SCN(c3c(Cl)cccc3Cl)C4=O)ccc21 [Example 1.231] | 2230 nM
44 | 273 nM | CN(C)C1CCN(c2ccc(Nc3ncc4c(n3)SCN(c3c(Cl)cccc3Cl)C4=O)cc2)CC1 [Example 1.232] | 1120 nM
45 | 165 nM | O=C1c2cnc(Nc3ccc4c(c3)CNCC4)nc2SCN1c1c(Cl)cccc1Cl [Example 1.233] | 7210 nM
46 | 202 nM | O=C1c2cnc(Nc3ccc4c(c3)CCNC4)nc2SCN1c1c(Cl)cccc1Cl [Example 1.234] | 4840 nM
47 | 111 nM | Cc1cc(Nc2ncc3c(n2)SCN(c2c(Cl)cccc2Cl)C3=O)ccc1N1CCNCC1 [Example 1.235] | 2900 nM
48 | 335 nM | O=C1c2cnc(Nc3ccc(N4CCNCC4)c(Cl)c3)nc2SCN1c1c(Cl)cccc1Cl [Example 1.236] | 1770 nM
49 | 45 nM | CC1(C)CNCc2cc(Nc3ncc4c(n3)SCN(c3c(F)cccc3Cl)C4=O)ccc21 [Example 1.238] | 5290 nM
50 | 508 nM | CN(C)C1CCN(c2ccc(Nc3ncc4c(n3)SCN(c3c(Cl)cccc3Cl)C4=O)cc2C#N)CC1 [Example 1.239] | 765 nM
51 | 303 nM | CN(C)C1CCN(c2ccc(Nc3ncc4c(n3)SCN(c3c(Cl)cccc3Cl)C4=O)cc2Cl)CC1 [Example 1.240] | 1640 nM
52 | 95 nM | CN1Cc2cc(Nc3ncc4c(n3)SCN(c3c(Cl)cccc3Cl)C4=O)ccc2C(C)(C)C1 [Example 1.241] | 3490 nM
53 | 340 nM | C[C@@H]1CN(c2ccc(Nc3ncc4c(n3)OCN(c3c(Cl)cccc3Cl)C4=O)cc2Cl)CCN1 [Example 1.919] | –
